From patent publication US9695171B2, “3,4-disubstituted-1 H-pyrrolo[2,3-b]pyridines and 4,5-disubstituted-7H-pyrrolo[2,3-c]pyridazines as LRRK2 inhibitors” (Pfizer Inc., priority 2013, dated 2017)

Target: T1, GST-tagged truncated LRRK2 (Homo sapiens, UniProt Q5S007)
T1 construct: GST-tagged truncated LRRK2 from Invitrogen (Cat # PV4874); GST; purchased Invitrogen PV4874
Assay: LRRK2 kinase assay (Lantha Screen)
Type: biochemical
Settings: 1 mM ATP (head); a = geometric mean of >=4 determinations, b = single determination; read-out: LRRK2 LANTHA EC50 at 1 mM ATP; Geometric mean of 2-3 determinations unless otherwise indicated
Experimental: LRRK2 kinase activity was measured using Lantha Screen technology from Invitrogen. GST-tagged truncated LRRK2 from Invitrogen (Cat # PV4874) was incubated with a fluorescein-labeled peptide substrate based upon ezrin/radixin/moesin (ERM), also known as LRRKtide (Invitrogen cat # PR8976A), in the presence of a dose response of compound. Upon completion, the assay was stopped and detected with a terbium labeled anti-phospho-ERM antibody (Invitrogen, cat # PR8975A). […] The compound dose response was prepared by diluting compound to a top concentration of 3.16 mM in 100% DMSO and serial diluted by half-log in DMSO 11 times. Aliquots (3.5 μL) of the 100% DMSO dose response were mixed with 46.5 μL water then 1 μL of this mixture was added to the 3 μL substrate mix in the 384-well plate. The kinase reaction was started with 3 μL of a working solution of LRRK2 enzyme at a concentration of 4 μg/mL. […] The reaction was allowed to progress at room temperature for two hours and then stopped with the addition of 7 μL of detection buffer (20 mM Tris pH 7.6, 0.01% NP-40, 0.02% NaN3, 6 mM EDTA with 2 nM terbium labeled anti-phospho-ERM). After an incubation of 1 hour at room temperature, the plate was read on an Envision with an excitation wavelength of 340 nm and a reading emission at both 520 nm and 495 nm. The ratio of the 520 nm and 495 nm emission was used to analyze the data.

T1 sequence (Q5S007 970-2527 limits assumed): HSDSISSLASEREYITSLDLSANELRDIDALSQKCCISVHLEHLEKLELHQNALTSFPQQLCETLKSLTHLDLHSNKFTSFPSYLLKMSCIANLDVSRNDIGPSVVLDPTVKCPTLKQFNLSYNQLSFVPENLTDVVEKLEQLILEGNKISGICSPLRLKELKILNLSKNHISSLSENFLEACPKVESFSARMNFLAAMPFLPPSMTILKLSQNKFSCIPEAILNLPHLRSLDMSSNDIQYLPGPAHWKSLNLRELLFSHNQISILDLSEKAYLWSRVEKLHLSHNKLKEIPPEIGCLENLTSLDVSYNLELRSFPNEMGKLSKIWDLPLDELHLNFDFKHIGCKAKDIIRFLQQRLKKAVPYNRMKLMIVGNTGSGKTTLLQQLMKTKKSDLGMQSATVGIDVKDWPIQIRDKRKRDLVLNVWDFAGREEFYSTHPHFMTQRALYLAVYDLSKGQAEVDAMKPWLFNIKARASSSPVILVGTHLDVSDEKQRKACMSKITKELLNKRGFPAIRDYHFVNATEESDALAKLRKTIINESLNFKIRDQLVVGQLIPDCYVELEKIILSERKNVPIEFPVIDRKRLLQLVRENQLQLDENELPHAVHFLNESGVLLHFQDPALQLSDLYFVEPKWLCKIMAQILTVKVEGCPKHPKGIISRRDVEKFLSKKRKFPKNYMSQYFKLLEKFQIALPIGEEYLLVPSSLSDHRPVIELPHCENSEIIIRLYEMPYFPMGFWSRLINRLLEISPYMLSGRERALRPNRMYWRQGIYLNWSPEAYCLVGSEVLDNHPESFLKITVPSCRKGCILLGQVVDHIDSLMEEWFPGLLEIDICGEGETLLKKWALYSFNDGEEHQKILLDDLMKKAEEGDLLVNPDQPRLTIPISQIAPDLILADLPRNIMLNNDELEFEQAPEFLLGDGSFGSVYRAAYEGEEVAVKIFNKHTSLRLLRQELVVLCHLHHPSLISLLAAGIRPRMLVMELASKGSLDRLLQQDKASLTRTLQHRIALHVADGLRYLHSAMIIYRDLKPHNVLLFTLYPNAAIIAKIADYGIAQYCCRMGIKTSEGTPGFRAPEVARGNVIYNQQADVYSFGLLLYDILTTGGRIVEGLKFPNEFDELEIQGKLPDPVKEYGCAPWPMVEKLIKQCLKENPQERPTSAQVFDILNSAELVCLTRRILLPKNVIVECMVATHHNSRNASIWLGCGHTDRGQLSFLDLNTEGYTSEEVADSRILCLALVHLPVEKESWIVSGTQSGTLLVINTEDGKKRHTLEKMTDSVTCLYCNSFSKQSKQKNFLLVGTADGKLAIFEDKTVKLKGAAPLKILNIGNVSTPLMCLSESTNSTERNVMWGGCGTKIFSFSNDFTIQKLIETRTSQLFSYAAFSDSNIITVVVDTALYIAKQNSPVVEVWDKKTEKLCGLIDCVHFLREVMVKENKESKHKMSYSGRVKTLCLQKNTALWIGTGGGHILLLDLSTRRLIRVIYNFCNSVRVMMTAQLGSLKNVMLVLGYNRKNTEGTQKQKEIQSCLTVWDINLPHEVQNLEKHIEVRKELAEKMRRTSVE

EC50 [nM]	Structure (SMILES)
4.28	N#Cc1cccc(-c2c[nH]c3nccc(N4CCOCC4)c23)c1 [Example 1, 3-[4-(Morpholin-4-yl)-1H-pyrrolo[2,3-b]pyridin-3-yl]benzonitrile]
5.17	N#Cc1cccc(-c2c[nH]c3nccc(N4CCOCC4)c23)c1F [Example 2, 2-Fluoro-3-[4-(morpholin-4-yl)-1H-pyrrolo[2,3-b]pyridin-3-yl]benzonitrile]
14	c1cnn2c(-c3c[nH]c4nccc(N5CCOCC5)c34)cnc2c1 [Example 3, 3-[4-(Morpholin-4-yl)-1H-pyrrolo[2,3-b]pyridin-3-yl]imidazo[1,2-b]pyridazine]
2.85	Cn1cc(-c2c[nH]c3nccc(N4CCOCC4)c23)cc1C#N [Example 4, 1-Methyl-4-[4-(morpholin-4-yl)-1H-pyrrolo[2,3-b]pyridin-3-yl]-1H-pyrrole-2-carbonitrile]
5.26	Cn1cc(-c2c[nH]c3nccc(N4CCOCC4)c23)nc1C#N [Example 5, 1-Methyl-4-[4-(morpholin-4-yl)-1H-pyrrolo[2,3-b]pyridin-3-yl]-1H-imidazole-2-carbonitrile]
14.2	Cn1cc(-c2c[nH]c3nncc(N4CCOCC4)c23)cc1C#N [Example 6, 1-Methyl-4-[4-(morpholin-4-yl)-7H-pyrrolo[2,3-c]pyridazin-5-yl]-1H-pyrrole-2-carbonitrile]
1.3	Cn1cc(-c2c(Cl)[nH]c3nccc(N4CCOCC4)c23)cc1C#N [Example 7, 4-[2-Chloro-4-(morpholin-4-yl)-1H-pyrrolo[2,3-b]pyridin-3-yl]-1-methyl-1H-pyrrole-2-carbonitrile]
22.1	Cc1[nH]c2nccc(N3CCOCC3)c2c1-c1cccc(C#N)c1 [Example 8, 3-[2-Methyl-4-(morpholin-4-yl)-1H-pyrrolo[2,3-b]pyridin-3-yl]benzonitrile]
208	Cc1cc(N2CCOCC2)c2c(-c3cccc(C#N)c3)c[nH]c2n1 [Example 9, 3-[6-Methyl-4-(morpholin-4-yl)-1H-pyrrolo[2,3-b]pyridin-3-yl]benzonitrile]
79.8	N#Cc1cccc(-c2c[nH]c3ncc(CO)c(N4CCOCC4)c23)c1 [Example 10, 3-[5-(Hydroxymethyl)-4-(morpholin-4-yl)-1H-pyrrolo[2,3-b]pyridin-3-yl]benzonitrile]
24.2	N#Cc1cccc(-c2c[nH]c3ncc(C#N)c(N4CCOCC4)c23)c1 [Example 11, 3-(3-Cyanophenyl)-4-(morpholin-4-yl)-1H-pyrrolo[2,3-b]pyridine-5-carbonitrile]
59.6	Cn1cc(-c2c[nH]c3nccc(C4=CCOCC4)c23)cn1 [Example 12, 4-(3,6-Dihydro-2H-pyran-4-yl)-3-(1-methyl-1H-pyrazol-4-yl)-1H-pyrrolo[2,3-b]pyridine]
26.5	Cn1cc(-c2c[nH]c3nccc(N4CCOCC4)c23)cn1 [Example 13, 3-(1-methyl-1H-pyrazol-4-yl)-4-(morpholin-4-yl)-1H-pyrrolo[2,3-b]pyridine]
25.9	CN(C)c1c(C#N)cnc2[nH]cc(-c3cccc(C#N)c3F)c12 [Example 14, 3-(3-cyano-2-fluorophenyl)-4-(dimethylamino)-1H-pyrrolo[2,3-b]pyridine-5-carbonitrile]
92.3	COc1ccc(F)cc1-c1c[nH]c2nccc(N3CCOCC3)c12 [Example 15, 3-(5-fluoro-2-methoxyphenyl)-4-(morpholin-4-yl)-1H-pyrrolo[2,3-b]pyridine]
44.3	COc1cc(F)cc(-c2c[nH]c3nccc(N4CCOCC4)c23)c1 [Example 16, 3-(3-fluoro-5-methoxyphenyl)-4-(morpholin-4-yl)-1H-pyrrolo[2,3-b]pyridine]
137	Cc1[nH]c2nccc(N3CCOCC3)c2c1-c1cnn(C)c1 [Example 17, 2-methyl-3-(1-methyl-1H-pyrazol-4-yl)-4-(morpholin-4-yl)-1H-pyrrolo[2,3-b]pyridine]
95.4	Cc1cc(N2CCOCC2)c2c(-c3cccc(C#N)c3F)c[nH]c2n1 [Example 18, 2-fluoro-3-[6-methyl-4-(morpholin-4-yl)-1H-pyrrolo[2,3-b]pyridin-3-yl]benzonitrile]
